Laboratory results: patent publication US9907852B2, “Anticancer agent and side-effect-alleviating agent” (National University Corporation University of Toyama, priority 2014, dated 2018)

Assays:
[1] = test system: PANC-1 (ATCC No. CRL-1469) cells
Experimental: After treatment for a period of 18-24 hours, the number of survival cells was counted with a Cell Counting Kit (Dojindo).

[2] = test system: pancreas cancer cell strain PANC-1; details: Non-Patent Document 1; cited from earlier work
Solubility in water = format: physicochemical
Miapaca-2 cells = assay: Tumor size in model transplanted pancreas cancer, existing anticancer agents combined with Burdock Fruit extract (Test Example 6); format: in vivo, mice; details: anticancer agent combined with GBS-01 750 mg/kg oral 5 days a week; about 4 weeks
Experimental: Miapaca-2 cells (5×10^6 cells/200 μl ) were subcutaneously transplanted under the armpit of BALB/cAJcl-nu/nu mice (CLEA Japan, Inc.), and after feeding of about 2 weeks those that grew to the size of about 100 mm^3 or about 600 mm^3 were selected and employed as the subject mice to be treated.
Thus prepared transplanted mice were divided into the respective groups, that is, an untreated group, a group administered an existing anticancer agent as a component having a variety of anticancer activities, a Burdock Fruit extract administered group and a group of combined administration of these agents, and the treatment was continued over about 4 weeks for 5 to 6 species of tumors in the respective groups. The existing anticancer agents used include Carboplatin (CBDCA, Bristol-Myers, peritoneal administration, 60 mg/kg once a week), Doxorubicin (Kyowa Hakko, peritoneal administration, 10 mg/kg twice a week), Oxaliplatin (Yakult, peritoneal administration, 8 mg/kg once a week), Everolimus (Novartis, oral administration, 5 mg/kg 5 times a week) , Bortezomib (Janssen Pharma, peritoneal administration, 1 mg/kg twice a week), Irinotecan (Yakult, peritoneal administration, 25 mg/kg twice a week), and Hydroxychloroquine (Sanofi, peritoneal administration, 100 mg/kg 5 times a week) . As for Burdock Fruit extract, 10% arctigenin-containing Burdock Fruit extract (Kracie Co., GBS-01) was used and orally administered at a dose of 750 mg/kg 5 days a week.
At intervals of 3 to 4 days, the mouse was fixed and the length (L), the minor axis (W) and the height (H) of tumor were measured by a precision digital vernier micrometer, from which the tumor size was calculated using the formula: Tumor size=4/3*pi*L/2*H/2*W/2(pi=3.14)
When the height cannot be measured, the formula: Tumor size=4/3*pi*L/2*(W/2)^2 was used for convenience.

SMILES | Magnification of LD50 decrease [1] | tumor size reduced compared to a single preparation of Burdock Fruit extract (Miapaca-2 cells) [times] | tumor size reduced compared to a single preparation of the anticancer agent (Miapaca-2 cells) | also measured
Cc1cn([C@H]2C[C@H](N=[N+]=[N-])[C@@H](CO)O2)c(=O)[nH]c1=O [AZT] | 4.67 | – | – | –
Nc1nc(OCc2ccccc2)c2nc[nH]c2n1 [Benzylguanine] | 8.24 | – | – | –
C[C@]12CC[C@H](OS(=O)(=O)O)CC1=CC[C@@H]1[C@@H]2CC[C@]2(C)C(=O)CC[C@@H]12 [DHEA-S] | 3.13 | – | – | –
c1cc(-c2cnn3cc(-c4ccc(OCCN5CCCCC5)cc4)cnc23)ccn1 [Dorsomorphin] | 6.14 | – | – | –
CNC(=N)NCCC[C@H](N)C(=O)O [L-NMMA] | 1.72 | – | – | –
CC(C)[C@H](CO)Nc1nc(Nc2cccc(Cl)c2)c2ncn(C(C)C)c2n1 [Purvalanol A] | 1.71 | – | – | –
CCCCOc1cc(CC2CNC(=O)N2)ccc1OC (centres unmarked) [Ro-20-1724] | 1.66 | – | – | –
COc1cc(C[C@H]2C(=O)OC[C@@H]2Cc2ccc(OC)c(OC)c2)ccc1O [arctigenin] | – | – | – | removal of the viability of tumor cells in a low nutritional state [2]: effective; solubility in water (Solubility in water): slightly soluble
COc1ccc(C[C@H]2COC(=O)[C@@H]2Cc2ccc(O[C@@H]3O[C@H](CO)[C@@H](O)[C@H](O)[C@H]3O)c(OC)c2)cc1OC [arctiin] | – | – | – | solubility in water (Solubility in water): slightly soluble
CC(C)C[C@H](NC(=O)[C@H](Cc1ccccc1)NC(=O)c1cnccn1)B(O)O [bortezomib, Bortezomib] | – | 1.8 | 1.4 times | –
COc1cccc2c1C(=O)c1c(O)c3c(c(O)c1C2=O)C[C@@](O)(C(=O)CO)C[C@@H]3O[C@H]1C[C@H](N)[C@H](O)[C@H](C)O1 [doxorubicin, Doxorubicin] | – | 1.4 | about 1.5 times | –
CO[C@H]1C[C@@H]2CC[C@@H](C)[C@@](O)(O2)C(=O)C(=O)N2CCCC[C@H]2C(=O)O[C@H]([C@H](C)C[C@@H]2CC[C@@H](OCCO)[C@H](OC)C2)CC(=O)[C@H](C)/C=C(\C)[C@@H](O)[C@@H](OC)C(=O)[C@H](C)C[C@H](C)/C=C/C=C/C=C/1C [everolimus, Everolimus] | – | 2.1 | 1.4 times | –
CCN(CCO)CCCC(C)Nc1ccnc2cc(Cl)ccc12 (centres unmarked) [hydroxychloroquine] | – | 1.9 | 2.5 times | –
CCc1c2c(nc3ccc(OC(=O)N4CCC(N5CCCCC5)CC4)cc13)-c1cc3c(c(=O)n1C2)COC(=O)[C@]3(O)CC [irinotecan, Irinotecan] | – | 2.1 | 1.5 times | –
